Reference: patent US11214594B2, “Antimicrobial peptide having synergistic antibacterial effect with antibiotics on multidrug resistant bacteria, and use thereof” (priority 2016, dated 2022)
In brackets after ≈: the same amount, converted by molar mass. Read-outs that look alike come from different tables or passages of the source. Where a SMILES comes first, the peptide text is derived from it.

How the values were obtained:
[1] = tested on: MDREC 1229; assay type: cell-based, Escherichia coli
Procedure: (§1) Specifically, the strains described in [Table 2] were prepared and diluted with an MH medium such that the number of bacteria was 2×10^6 colony-forming units (CFUs) per 1 ml, 100 μl of the diluted strains was each aliquoted into a 96-well microtiter plate, and then 50 μl of a peptide solution diluted with the MH medium from the MIC value (solution diluted stepwise at 2: 1) was added to each well. Thereafter, the MIC value of each mixed solution was determined by diluting the antibiotic solution with the MH medium, adding 50 μl of the diluted solution to each well, and performing an experiment even under a reversed condition.

[2] = tested on: E. coli; assay type: cell-based, Escherichia coli; conditions: E. coli
Procedure: as §1

[3] = tested on: S. typhimurium; assay: microbe, parasite or virus in culture; assay type: cell-based, Salmonella typhimurium
In short: (§2)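 Broth microdilution in MH medium: strains diluted to 2×10^6 CFU were mixed with equal volumes of twofold serial peptide dilutions in MH medium. MIC was taken as the lowest peptide concentration preventing bacterial growth.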

[4] = tested on: A. baumannii; assay: MIC of antimicrobial peptide during combined treatment with antibiotic; assay type: cell-based, Acinetobacter baumannii
In short: (§3)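 Antibiotic MIC came from antibiotic dilutions added to bacteria (2×10^6 CFU/ml, MH medium) already combined with peptide serially diluted 2:1 from its own MIC. Swapping the roles of the two agents gave the peptide MIC.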

[5] = tested on: MDRAB 12035; assay: as above; assay type: cell-based, Acinetobacter baumannii
In short: as §3

[6] = tested on: MDRAB 12036; assay type: cell-based, Acinetobacter baumannii
Procedure: (§4) For the antibacterial activity, a minimal inhibitory concentration (MIC) of a peptide in which fungus bodies were not split in an MH medium with sufficient nutrients was measured.
(§5) Specifically, the strains described in the following [Table 2] were purchased and diluted with an MH medium such that the number of bacteria was 2×10^6 colony-forming units (CFUs), 100 μl of each of the diluted strains was aliquoted into a 96-well microtiter plate, and then 100 μl of a peptide solution diluted with the MH medium (solution diluted stepwise at 2: 1) was added to each well.

[7] = tested on: MDRST 8009; assay type: cell-based, Salmonella typhimurium; conditions: agent alone
Procedure: as §4, §5

[8] = tested on: A. baumannii; assay: microbe, parasite or virus in culture; assay type: cell-based, Acinetobacter baumannii
In short: as §2

[9] = tested on: MDRAB 12035; assay: microbe, parasite or virus in culture; assay type: cell-based, Acinetobacter baumannii
In short: as §2

[10] = with Erythromycin […] (Conc./MIC 1)
[11] = with Linezolid 512 μg/ml (Conc./MIC 1)
[12] = with Linezolid […] (Conc./MIC 1)
[13] = with Vancomycin 1024 μg/ml (Conc./MIC 1)
[14] = erythromycin 4 μg/ml (Conc./MIC 1/8)
[15] = erythromycin 8 μg/ml (Conc./MIC 1/4)
[16] = erythromycin 16 μg/ml (Conc./MIC 1/2)
[17] = erythromycin 32 μg/ml (Conc./MIC 1)
[18] = linezolid 32 μg/ml (Conc./MIC 1/8)
[19] = linezolid 64 μg/ml (Conc./MIC 1/4)
[20] = vancomycin 512 μg/ml (Conc./MIC 1/2)
[21] = vancomycin 1024 μg/ml (Conc./MIC 1)
[22] = linezolid 64 μg/ml (Conc./MIC 1/8)
[23] = linezolid 512 μg/ml (Conc./MIC 1)

SMILES	Peptide MIC [1, 10]	Peptide MIC [1, 11]	Peptide MIC [2, 10]	Peptide MIC [2, 12]	Peptide MIC [2, 13]	Minimal inhibitory concentration MIC [3]	Peptide MIC during treatment with antibiotic [4, 14]	Peptide MIC during treatment with antibiotic [4, 15]	Peptide MIC during treatment with antibiotic [4, 16]	Peptide MIC during treatment with antibiotic [4, 17]	Peptide MIC during treatment with antibiotic [4, 18]	Peptide MIC during treatment with antibiotic [4, 19]	Peptide MIC during treatment with antibiotic ([4]; linezolid […] (Conc./MIC 1))	Peptide MIC during treatment with antibiotic ([4]; linezolid […] (Conc./MIC 1/2))	Peptide MIC during treatment with antibiotic [4, 20]	Peptide MIC during treatment with antibiotic [4, 21]	Peptide MIC during treatment with antibiotic ([4]; vancomycin […] (Conc./MIC 1/4))	Peptide MIC during treatment with antibiotic ([4]; vancomycin […] (Conc./MIC 1/8))	Peptide MIC during treatment with erythromycin [5, 14]	Peptide MIC during treatment with erythromycin [5, 15]	other results
CC[C@H](C)[C@H](NC(=O)[C@H](CCCCN)NC(=O)[C@H](Cc1c[nH]c2ccccc12)NC(=O)[C@@H](N)CCCNC(=N)N)C(=O)N[C@@H](Cc1ccccc1)C(=O)N[C@@H](CCCCN)C(=O)N[C@@H](CCCCN)C(=O)N[C@H](C(=O)N1CCC[C@H]1C(=O)N[C@@H](CCCCN)C(=O)N[C@@H](Cc1ccccc1)C(=O)N[C@@H](CC(C)C)C(=O)N[C@@H](Cc1c[nH]cn1)C(=O)N[C@@H](CO)C(=O)N[C@@H](Cc1ccccc1)C(=O)N[C@@H](CCCCN)C(=O)N[C@@H](CCCCN)C(=O)N[C@@H](Cc1ccccc1)C(N)=O)[C@@H](C)CC [PapMA-5, RWK IFK KIP KFL HSF KKF-NH2] (H-RWKIFKKIPKFLHSFKKF-NH2; N-terminus assumed)	0 µg/mL	0 µg/mL	0 µg/mL	0 µg/mL	0 µg/mL	64 µg/mL (≈ 26.9 µM)	8 µg/mL	4 µg/mL	2 µg/mL	0 µg/mL	4 µg/mL	2 µg/mL	0 µg/mL	1 µg/mL	0.5 µg/mL	0 µg/mL	1 µg/mL	4 µg/mL	4 µg/mL	4 µg/mL	Peptide MIC during treatment with erythromycin [5, 16]: 4 µg/mL; Peptide MIC during treatment with erythromycin [5, 17]: 0 µg/mL; Peptide MIC during treatment with linezolid [5, 22]: 4 µg/mL; Peptide MIC during treatment with linezolid [5, 23]: 0 µg/mL; Peptide MIC during treatment with linezolid ([5]; linezolid […] (Conc./MIC 1/2)): 1 µg/mL; Peptide MIC during treatment with linezolid ([5]; linezolid […] (Conc./MIC 1/4)): 4 µg/mL; Peptide MIC during treatment with vancomycin [5, 20]: 2 µg/mL; Peptide MIC during treatment with vancomycin [5, 21]: 1 µg/mL; Peptide MIC during treatment with vancomycin ([5]; vancomycin […] (Conc./MIC 1/4)): 4 µg/mL; Peptide MIC during treatment with vancomycin ([5]; vancomycin […] (Conc./MIC 1/8)): 4 µg/mL; Minimal inhibitory concentration MIC [6]: 64 µg/mL (≈ 26.9 µM); Minimal inhibitory concentration MIC [7]: 64 µg/mL (≈ 26.9 µM); Minimal inhibitory concentration MIC [8]: 64 µg/mL (≈ 26.9 µM); Peptide MIC, peptide alone [8]: 64 µg/mL; Minimal inhibitory concentration MIC [9]: 64 µg/mL (≈ 26.9 µM); Peptide MIC, peptide alone [9]: 64 µg/mL
CC[C@H](C)[C@H](NC(=O)[C@H](CCCCN)NC(=O)[C@H](Cc1c[nH]c2ccccc12)NC(=O)[C@@H](N)CCCNC(=N)N)C(=O)N[C@@H](Cc1ccccc1)C(=O)N[C@@H](CCCCN)C(=O)N[C@@H](CCCCN)C(=O)N[C@H](C(=O)N1CCC[C@H]1C(=O)N[C@@H](CCCCN)C(=O)N[C@@H](Cc1ccccc1)C(=O)N[C@@H](CC(C)C)C(=O)N[C@@H](Cc1c[nH]cn1)C(=O)N[C@@H](CO)C(=O)N[C@@H](CC(C)C)C(=O)N[C@@H](CCCCN)C(=O)N[C@@H](CCCCN)C(=O)N[C@@H](Cc1ccccc1)C(N)=O)[C@@H](C)CC [PapMA-6, RWK IFK KIP KFL HSL KKF-NH2] (H-RWKIFKKIPKFLHSLKKF-NH2; N-terminus assumed)	0 µg/mL	0 µg/mL	0 µg/mL	0 µg/mL	0 µg/mL	16 µg/mL (≈ 6.83 µM)	4 µg/mL	2 µg/mL	1 µg/mL	0 µg/mL	4 µg/mL	2 µg/mL	0 µg/mL	1 µg/mL	0.25 µg/mL	0 µg/mL	0.5 µg/mL	2 µg/mL	4 µg/mL	2 µg/mL	Peptide MIC during treatment with erythromycin [5, 16]: 1 µg/mL; Peptide MIC during treatment with erythromycin [5, 17]: 0 µg/mL; Peptide MIC during treatment with linezolid [5, 22]: 2 µg/mL; Peptide MIC during treatment with linezolid [5, 23]: 0 µg/mL; Peptide MIC during treatment with linezolid ([5]; linezolid […] (Conc./MIC 1/2)): 1 µg/mL; Peptide MIC during treatment with linezolid ([5]; linezolid […] (Conc./MIC 1/4)): 1 µg/mL; Peptide MIC during treatment with vancomycin [5, 20]: 1 µg/mL; Peptide MIC during treatment with vancomycin [5, 21]: 0.25 µg/mL; Peptide MIC during treatment with vancomycin ([5]; vancomycin […] (Conc./MIC 1/4)): 2 µg/mL; Peptide MIC during treatment with vancomycin ([5]; vancomycin […] (Conc./MIC 1/8)): 2 µg/mL; Minimal inhibitory concentration MIC [6]: 64 µg/mL (≈ 27.3 µM); Minimal inhibitory concentration MIC [7]: 64 µg/mL (≈ 27.3 µM); Minimal inhibitory concentration MIC [8]: 32 µg/mL (≈ 13.7 µM); Peptide MIC, peptide alone [8]: 32 µg/mL; Minimal inhibitory concentration MIC [9]: 64 µg/mL (≈ 27.3 µM); Peptide MIC, peptide alone [9]: 64 µg/mL
CC[C@H](C)[C@H](NC(=O)[C@H](CCCCN)NC(=O)[C@H](Cc1c[nH]c2ccccc12)NC(=O)[C@@H](N)CCCNC(=N)N)C(=O)N[C@@H](Cc1ccccc1)C(=O)N[C@@H](CCCCN)C(=O)N[C@@H](CCCCN)C(=O)N[C@H](C(=O)N1CCC[C@H]1C(=O)N[C@@H](CCCCN)C(=O)N[C@@H](CC(C)C)C(=O)N[C@@H](CC(C)C)C(=O)N[C@@H](Cc1c[nH]cn1)C(=O)N[C@@H](CO)C(=O)N[C@@H](C)C(=O)N[C@@H](CCCCN)C(=O)N[C@@H](CCCCN)C(=O)N[C@@H](Cc1c[nH]c2ccccc12)C(N)=O)[C@@H](C)CC [PapMA-9, RWK IFK KIP KLL HSA KKW-NH2] (H-RWKIFKKIPKLLHSAKKW-NH2; N-terminus assumed)	0 µg/mL	0 µg/mL	0 µg/mL	0 µg/mL	0 µg/mL	32 µg/mL (≈ 13.9 µM)	4 µg/mL	2 µg/mL	2 µg/mL	0 µg/mL	4 µg/mL	4 µg/mL	0 µg/mL	2 µg/mL	0.25 µg/mL	0 µg/mL	0.5 µg/mL	2 µg/mL	4 µg/mL	4 µg/mL	Peptide MIC during treatment with erythromycin [5, 16]: 1 µg/mL; Peptide MIC during treatment with erythromycin [5, 17]: 0 µg/mL; Peptide MIC during treatment with linezolid [5, 22]: 2 µg/mL; Peptide MIC during treatment with linezolid [5, 23]: 0 µg/mL; Peptide MIC during treatment with linezolid ([5]; linezolid […] (Conc./MIC 1/2)): 1 µg/mL; Peptide MIC during treatment with linezolid ([5]; linezolid […] (Conc./MIC 1/4)): 2 µg/mL; Peptide MIC during treatment with vancomycin [5, 20]: 1 µg/mL; Peptide MIC during treatment with vancomycin [5, 21]: 0.25 µg/mL; Peptide MIC during treatment with vancomycin ([5]; vancomycin […] (Conc./MIC 1/4)): 1 µg/mL; Peptide MIC during treatment with vancomycin ([5]; vancomycin […] (Conc./MIC 1/8)): 2 µg/mL; Minimal inhibitory concentration MIC [6]: 64 µg/mL (≈ 27.7 µM); Minimal inhibitory concentration MIC [7]: 64 µg/mL (≈ 27.7 µM); Minimal inhibitory concentration MIC [8]: 32 µg/mL (≈ 13.9 µM); Peptide MIC, peptide alone [8]: 32 µg/mL; Minimal inhibitory concentration MIC [9]: 64 µg/mL (≈ 27.7 µM); Peptide MIC, peptide alone [9]: 64 µg/mL
